Reference: US12140559B2, “Cell analysis using ChemFET sensor array-based systems” (LIFE TECHNOLOGIES CORPORATION, priority 2018, dated 2024)
Like-named read-outs stand apart in the source and are kept apart here.

Assays:
[1] = tested on: voltage-gated calcium ion channels; test: ChemFET sensor array: 30 mM KCl depolarizing stimulus in presence of calcium channel blocker, control vs transfected U-2OS cells; type: cell-based; conditions: 10 μM, U-2OS control cells vs U-2OS transfected with voltage-gated calcium channel alpha, beta and alpha-2-delta subunits
From the text: FIG. 9A illustrates temporal response curves for U-2OS cells (C1 and C2) and U-2OS cells transfected with voltage-gated calcium channel alpha, beta and alpha-2-delta subunits (C3 and C4). The temporal response curves presented in FIG. 9A represent data collected over an area of interest for the U-2OS cells in comparison to transfected U-2OS cells, in which the impact of cell response for each type of cell treated with the calcium ion channel blocker verapamil was monitored through a cycle of an initial state of resting potential, followed by conditions for depolarization of membrane potential, and return to resting potential.
Briefly, the sensor array device surface was soaked for 30 minutes with 70% ethanol in water, then rinsed with PBS before adding a solution of 0.1% poly-D-lysine, which was allowed to sit for two hours. The device was then rinsed twice with 200 μL of a cell culture medium, for example, McCoy's 5A modified medium with 10% fetal calf serum. After rinsing with the cell culture medium, the devices were ready for plating with a cell suspension.
Preparation of transfected cells was done using a cell suspension of 1×10^6 cells per mL. Mammalianized BacMam gene delivery particles encoding a mixture of voltage-gated calcium ion channel alpha, beta and alpha-2-delta subunits was added to the cell suspension to reconstitute functional channels. […]

HASM cells = HASM cells tested individually on separate device
From the text: (§1) For the experiments for which data is presented in FIG. 13A through FIG. 13C, three distinct cell types were chosen to test for the ability of the instrument to discriminate cell type based on response to FCCP. To generate the data set comparing widely varying cell types, donor-derived primary human aortic smooth muscle (HASM) cells (HASMC; Gibco cat# C0075C), human cervical cancer cells (HeLa cells; ATCC catalogue number CRM CCL 2) and a mouse-derived […] cell line (MMM cells; ATCC catalogue number J774A.1) were selected for the study.
(§2) FIG. 13A through FIG. 13C are average background-subtracted temporal dose-responses curves for each type of cell line tested individually on separate devices. FIG. 13A is set of dose-response curves for HASM cells, FIG. 13B is a set of dose-response curves for HeLa cells, and FIG. 13C is a set of dose-response curves for MMM cells. For the data shown in FIG. 14A through FIG. 14C, a mixture of the cells were exposed to 100 μM FCCP and their responses recorded in order to understand whether or not the different cell types could be identified by their response to FCCP. FIG. 14A illustrates composite temporal dose-response curves for selected cells in a mixture of different cell types in which the cells were subjected to FCCP. FIG. 14B is an electroscopic image of the experiment of FIG. 14A taken at a time corresponding to frame 40 (2.7 seconds), in which squares within the cells indicate the pixels that were sampled for the data of FIG. 14A. FIG. 14C is the electroscopic image of FIG. 14B for which the squares within the cells in […] have removed to provide a clear image of the cells.
(§3) The sensor array devices used in experiments from which data for FIG. 13A though FIG. 14C was generated was a Chip 2 device of FIG. 3, selective for sensing hydrogen ion, and included a microwell array.

HeLa cells = HeLa cells tested individually on separate device
From the text: as §1, §2, §3

MMM cells = MMM cells tested individually on separate device
From the text: as §1, §2, §3

HEPG2 cells = conditions: 100 μM; seen for some cells (CHEPG1, CHEPG2), not all (CHEPG3)
Experimental: The HEPG2 cells were resuspended at 1×10^6 cells per mL and plated onto chips for overnight incubation in a cell culture incubator to allow the cells to adhere to the prepared surface of the chip.

U-2OS cells = conditions: series of concentration jumps
From the text: FIG. 12A illustrates averaged background-subtracted temporal dose-response curves for U-2OS cells treated with FCCP. FIG. 12B illustrates averaged background-subtracted temporal dose-response curves for U-2OS cells pretreated with a nutrient solution containing oligomycin before being treated with FCCP.
Both Chip 1 and Chip 2 devices were ISFET devices selective for sensing hydrogen ion, and included a microwell array. […] The U-2OS cells were resuspended at 1×10^6 cells per mL and plated onto chips for overnight incubation in a cell culture incubator to allow the cells to adhere to the prepared surface of the chip. To test for dose-dependence of the FCCP treatment, cells were exposed to a series of concentration jumps during the experiment as indicated in FIGS. 12A and FIG. 12B. In FIG. 12A, experiments were carried out in the absence of oligomycin, and in 12B, the FCCP dose-response curve was generated in the presence of oligomycin.
The data in FIG. 12A and FIG. 12B are composed of averaged cellular responses from samples tested with FCCP.

| SMILES | activity of blocker on temporal response to depolarizing stimulus [1] | temporal response to FCCP (HASM cells) | temporal response to FCCP (HeLa cells) | temporal response to FCCP (MMM cells) | cellular response observed during application (electroscopic image) (HEPG2 cells) | averaged cellular temporal response (U-2OS cells; absence of oligomycin) | averaged cellular temporal response (U-2OS cells; presence of oligomycin (pretreatment)) |
| --- | --- | --- | --- | --- | --- | --- | --- |
| COc1ccc(CCN(C)CCCC(C#N)(c2ccc(OC)c(OC)c2)C(C)C)cc1OC (stereo not shown) [verapamil] | selective activity of a blocker on cultures that express the target protein | – | – | – | – | – | – |
| N#CC(C#N)=NNc1ccc(OC(F)(F)F)cc1 [FCCP, carbonyl cyanide-4-(trifluoromethoxy)phenylhydrazone] | – | distinct kinetic and amplitude response | distinct kinetic and amplitude response | distinct kinetic and amplitude response | efflux of cellular contents | dose-dependent FCCP responses | dose-dependent FCCP responses |
